Experimental data published in patent publication US20020037516A1, “Assay for identification of a test compound” (priority 2000, published 2002).

Experiments:
[1] = target: tsr methyltransferase (thiostrepton resistance methyltransferase); test: Inhibition of tsr methyltransferase methylation of mGAR (GTPase activating region of 23S rRNA): [3H]SAM incorporation, mGAR titration, 96-well (FIG. 7); format: biochemical, Streptomyces azureus; conditions: compounds at 50 μM, 25° C., 30 min, increasing mGAR, Ki=[I]/((Km(I)/Km)−1), tsr gene cloned, overexpressed in E. coli, read-out: TSR methyltransferase (GAR RNA methylation) Ki
Experimental: The Km for each titration is determined by fitting the data to the equation
Bmax: incorporation at RNA substrate saturation in cpm.
[RNA]: concentration of target RNA.
The Ki value for a compound is determined by relating the Km in the presence and the Km in the absence of compound using the equation:
[I]: concentration of the inhibitory compound
Km(I): Michaelis constant in the presence of inhibitor
Km: Michaelis constant in the absence of inhibitor
In an preferred format, enzyme binding and activity is measured by measuring the Michealis constant (Km) of the enzymatic reaction in the absence and presence of a constant concentration of the test compound. Increasing amounts of target RNA are incubated with the modifying enzyme and the yield of modified RNA product is measured for each point. Data from this substrate titration are fitted to a saturation curve by non-linear regression. The Michaelis constant Km is determined from the curve-fitting by routine methods. […]
RNA (0-2 μM) was incubated in 25 mM HEPES-KOH, pH 7.5, 25 mM NH4Cl, 5 mM MgCl2, 5 mM DTT with test compounds. […] 50 μl scintillation cocktail (Wallac Optiszint) was added to each well of the dried filter plate and incorporated [^3H]-radioactivity was determined in a Wallac Trilux scintillation counter. […]

[2] = system: rRNA; test: rRNA methylation by Erm E in the presence of erythromycin; format: biochemical; conditions: erythromycin 200 μM
Experimental: Erm E is inhibited by erythromycin (FIG. 21). Erythromycin inhibits enzyme activity most noticably when the RNA is folded in the presence of erythromycin (FIG. 21). One embodiment of the invention may therefore involve folding of the RNA in the presence of compound before measuring the activity of the methyltransferase on the RNA.
The reaction was performed in 50 μl 50 mM Tris/Cl, pH 7.5, 4 mM MgCl2, 40 mM KCl, 10 mM DTT, for 120 min at 37° C. with 0.04 μM rRNA and 6 μCi [3H]SAM. The erythromycin concentration was 200 μM.

[3] = system: mGAR; test: Inhibition of tsr methylation activity by test compounds in 96 well plate, mGAR titration; format: biochemical; conditions: compound at 50 μM, 25° C., 30 minutes, increasing amounts of mGAR; FIG. 7
Experimental: The Ki value for a compound is determined by relating the Km in the presence and the Km in the absence of compound using the equation: […]
In an preferred format, enzyme binding and activity is measured by measuring the Michealis constant (Km) of the enzymatic reaction in the absence and presence of a constant concentration of the test compound. Increasing amounts of target RNA are incubated with the modifying enzyme and the yield of modified RNA product is measured for each point. Data from this substrate titration are fitted to a saturation curve by non-linear regression. The Michaelis constant Km is determined from the curve-fitting by routine methods.
Test compounds were assayed in a 96 well plate for inhibition of tsr methylation activity at 50 μM. Compounds were incubated at 25° C. for 30 minutes in the presence of [^3H]SAM and enzyme, and increasing amounts of mGAR were added. RNA was precipitated with 2% TFA, filtered, and scintillation counted in a Wallac Trilux instrument.

[4] = system: E. coli GAR; test: TSR methyltransferase methylation of GAR RNA with [3H]SAM, titration of inhibitor; format: biochemical; conditions: 23S (or GAR), competition with methyltransferase at A-1067; FIG. 6; read-out: affinity (binding measured by following inhibition of methylation)
Experimental: RNA (0-2 μM) was incubated in 25 mM HEPES-KOH, pH 7.5, 25 mM NH4Cl, 5 mM MgCl2, 5 mM DTT with test compounds. The methylation reaction was started by adding 8 pmol TSR methyltransferase and 1 μCi [^3H]SAM (Amersham-Pharmacia). The final assay volume was 100 μl. The reaction was incubated 15 min at 25° C. and stopped by adding 1 vol. 2% TFA. The TFA precipitate was filtered through a 96-well glassfiber filterplate (Millipore Multiscreen FB 1.0 μM Glass Fiber Type B Filter). The filters were washed with 2 vol. of 2% TFA. 50 μl scintillation cocktail (Wallac Optiszint) was added to each well of the dried filter plate and incorporated [^3H]-radioactivity was determined in a Wallac Trilux scintillation counter.
The L11 ribosomal protein is an integral part of the GAR, and its presence inhibits methyltransferase activity [Bechthold & Floss, 1994]. Various concentrations of L11 were incubated with E. coli GAR and [^3H]SAM as described above. As expected, methylation was inhibited as L11 concentration increased.
Methyltransferase and thiostrepton thus compete for binding at A-1067, and binding of thiostiepton to 23S (or GAR) can be measured by following inhibition of methylation.

## NC[C@@H]1O[C@H](O[C@H]2[C@@H](O)[C@H](O[C@@H]3[C@@H](O)[C@H](N)C[C@H](N)[C@H]3O[C@H]3O[C@H](CN)[C@@H](O)[C@H](O)[C@H]3N)O[C@@H]2CO)[C@H](N)[C@@H](O)[C@@H]1O [Neomycin, neomycin]
[1]
  Ki: 9 µM

## CC[C@H]1OC(=O)[C@H](C)[C@@H](O[C@H]2C[C@@](C)(OC)[C@@H](O)[C@H](C)O2)[C@H](C)[C@@H](O[C@@H]2O[C@H](C)C[C@H](N(C)C)[C@H]2O)[C@](C)(O)C[C@@H](C)C(=O)[C@H](C)[C@@H](O)[C@]1(C)O [erythromycin]
[2]; refolded rRNA 0.04 μM, 120 min at 37° C., FIG. 21
  refolded rRNA methylation by Erm E: decrease
[2]; unfolded rRNA
  effect on rRNA methylation by Erm E: no effect

## NC[C@@H]1O[C@H](O[C@H]2[C@@H](O)[C@H](O[C@@H]3[C@@H](O)[C@H](N)C[C@H](N)[C@H]3O[C@H]3O[C@H](CN)[C@@H](O)[C@H](O)[C@H]3N)O[C@@H]2CO)[C@H](N)[C@@H](O)[C@@H]1O [neomycin]
[3]
  inhibition of methyltransferase (methylation): significant inhibition

## C=C(NC(=O)C(=C)NC(=O)c1csc(C2=N[C@@H]3c4csc(n4)[C@H]4NC(=O)c5csc(n5)[C@H]([C@](C)(O)[C@@H](C)O)NC(=O)[C@H]5CSC(=N5)/C(=C/C)NC(=O)[C@H]([C@@H](C)O)NC(=O)c5csc(n5)[C@]3(CC2)NC(=O)[C@H](C)NC(=O)C(=C)NC(=O)[C@H](C)NC(=O)[C@H]([C@@H](C)CC)N[C@@H]2C=Cc3c([C@H](C)O)cc(nc3[C@H]2O)C(=O)O[C@@H]4C)n1)C(N)=O [thiostrepton]
[4]
  Kd: 1.1 µM
